Read-outs that look alike come from different tables or passages of the source.
Columns and labels:
[1] = assay type: in vivo, Dutch Belted rabbits; conditions: for Cmax / Tmax: 4 mg; for AUC(0-t): DB rabbits, 91 days
[2] = assay type: in vivo, New Zealand White rabbits; conditions: for Plasma concentration / AUC(0-t): 1 mg/eye; for Plasma concentration: below LOQ; for Cmax / Tmax: New Zealand White, rabbit, 1 mg; for AUC(0-t): NZW rabbits
[3] = assay type: in vivo, Dutch Belted rabbits; conditions: for Tmax / Cmax / half-life: Dutch Belted, rabbit, sc; for AUC(0-t): DB rabbits
[4] = assay type: in vivo, rabbits; conditions: rabbit, RCS, sc, 1.05 mg/eye
[5] = Dutch Belted, rabbit, RPE-choroid-sclera complex (RCS), sc
[6] = Dutch Belted, rabbit, vitreous humor, sc
[7] = SC, 4 mg/eye, throughout 91-day study, not detected/quantifiable, LOQ
[8] = vitreous humor, topical or ocular
[9] = RPE-choroid-sclera complex (RCS), 0.03 mg
[10] = RPE-choroid-sclera complex (RCS), 0.1 mg
[11] = SC, 0.03 and 0.10 mg/eye, 10-week study
[12] = SC, 0.03 and 0.1 mg/eye, any timepoint, not quantifiable, LOQ

## CNC(=O)c1ccccc1Sc1ccc2c(/C=C/c3ccccn3)n[nH]c2c1 [Axitinib]
[1]; [5]
  Cmax: 2.2e+07 ng/g
  Tmax: 96 h
[1]; Dutch Belted, rabbit, RPE-choroid-sclera complex (RCS), sc, 4 mg/eye
  half-life: 143 days
[1]; Dutch Belted, rabbit, retina, sc
  Cmax: 325000 ng/g
[1]; Dutch Belted, rabbit, retina, sc, 4 mg/eye
  concentration at 91 day: 305000 ng/g
[1]; [6]
  Cmax: 858 ng/mL
  Tmax: 96 h
[1]; RCS (RPE-choroid-sclera, dose depot), SC, 4 mg/eye
  AUC(0-t): 1,260,000 µg·d/g
[1]; [7]
  Aqueous humor concentration: < 1 ng/mL
  Plasma concentration: < 0.15 ng/mL
[1]; SC, 4 mg/eye, density of vitreous humor assumed 1
  Vitreous humor level lower than that of RCS and retina: 3 to 4 log orders
[1]; vitreous humor, SC, 4 mg/eye
  AUC(0-t): 31.1 µg·d/g or µg*d/mL
[2]; IVT, all timepoints
  Plasma concentration: < 0.150 ng/mL
[2]; posterior eye cup (PEC), sc
  Cmax: 799000 ng/g
  Tmax: 6 h
[2]; posterior eye cup (PEC), topical or ocular
  Cmax: 124000 ng/g
[2]; vitreous humor, sc
  Cmax: 3670 ng/g
  Tmax: 168 h
[2]; [8]
  Cmax: 1.28e+06 ng/g
  Tmax: 0.08 h
[2]; PEC (posterior eye cup), SC injection
  AUC(0-t): 5208 µg·days/g
[2]; PEC, IVT injection
  AUC(0-t): 471 µg·days/g
[2]; SC, all timepoints except 6 hours
  Plasma concentration: < 0.150 ng/mL
[2]; vitreous humor, IVT injection
  AUC(0-t): 6208 µg·days/g
[2]; vitreous humor, SC injection
  AUC(0-t): 19 µg·days/g
[3]; RPE-choroid-sclera complex (RCS)
  Tmax: 24 h
[3]; [9]
  Cmax: 37200 ng/g
  Tmax: 24 h
  half-life: 264 h
[3]; [10]
  Cmax: 232000 ng/g
  Tmax: 24 h
  half-life: 384 h
[3]; retina, 0.03 mg
  Cmax: 4480 ng/g
  Tmax: 24 h
[3]; retina, 0.1 mg
  Cmax: 6260 ng/g
  Tmax: 24 h
[3]; vitreous humor, 0.03 mg
  Cmax: 4.01 ng/mL
  Tmax: 24 h
[3]; vitreous humor, 0.1 mg
  Cmax: 4.58 ng/mL
  Tmax: 24 h
[3]; RCS, SC, 0.03 mg/eye
  AUC(0-t): 338 µg·days/g
[3]; RCS, SC, 0.1 mg/eye
  AUC(0-t): 2320 µg·days/g
[3]; RCS, SC, dose ratio 3.33
  Mean AUC0-∞ after 0.10 mg dose versus 0.03 mg dose: ~7 fold
  Mean Cmax after 0.10 mg dose versus 0.03 mg dose: approximately 6 fold
[3]; [11]
  RCS (dose depot) level higher than retina: 1 to 2 orders of magnitude
  Retina level higher than vitreous humor: 3 to 4 orders of magnitude
[3]; [12]
  Aqueous humor concentration: < 1 ng/mL
  Plasma concentration: < 0.15 ng/mL
[3]; retina, SC, 0.03 mg/eye
  AUC(0-t): 17.3 µg·days/g
[3]; retina, SC, 0.1 mg/eye
  AUC(0-t): 28.1 µg·days/g
[4]
  concentration at 182 day: 199000 ng/g
